In PMC8016481, “Tachykinin signaling inhibits task-specific behavioral responsiveness in honeybee workers” (eLife, 2021):
Values joined by “and” are separate entries in the source; they are usually repeats but may differ in a detail not shown here. Identical values can stand only once. Like-named read-outs stand apart in the source and are kept apart here. Ends that are not written are not given here.

Key:
[1] = system: TRP2-induced ERK1/2 phosphorylation; test: Effect of inhibitors on TRP2-induced ERK1/2 phosphorylation, HEK293 cells; format: cell-based, Homo sapiens
[2] = system: TRP2-induced ERK1/2 phosphorylation; test: Effect of inhibitors on TRP2-induced ERK1/2 phosphorylation, Sf21 cells; format: cell-based, Spodoptera frugiperda
[3] = system: TRP2-mediated cAMP accumulation; test: Effect of PTX, CTX, YM-254890 and H89 on TRP2-mediated cAMP accumulation, HEK293 cells expressing TRPR; format: cell-based, Homo sapiens
[4] = system: honeybee TRPR; test: Competitive binding of TRPs to TRPR in HEK293 cells (displacement of TAMRA-TRP2/TAMRA-TRP3); parameters: species or system Apis mellifera; details: HEK293
[5] = system: honeybee TRPR; test: Competitive binding of TRPs to TRPR in Sf21 cells (displacement of TAMRA-TRP2/TAMRA-TRP3); parameters: species or system Apis mellifera
[6] = system: TRPR
[7] = system: TRPR; remark: listed apart in the source
[8] = system: TRPR; remark: listed apart in the source
[9] = target: honeybee tachykinin-related peptide receptor (FLAG-TRPR) expressed in HEK293 cells (Apis mellifera)
Chain of honeybee tachykinin-related peptide receptor (FLAG-TRPR) expressed in HEK293 cells (Apis mellifera) (A0ACM8RFV8 entry or part of it): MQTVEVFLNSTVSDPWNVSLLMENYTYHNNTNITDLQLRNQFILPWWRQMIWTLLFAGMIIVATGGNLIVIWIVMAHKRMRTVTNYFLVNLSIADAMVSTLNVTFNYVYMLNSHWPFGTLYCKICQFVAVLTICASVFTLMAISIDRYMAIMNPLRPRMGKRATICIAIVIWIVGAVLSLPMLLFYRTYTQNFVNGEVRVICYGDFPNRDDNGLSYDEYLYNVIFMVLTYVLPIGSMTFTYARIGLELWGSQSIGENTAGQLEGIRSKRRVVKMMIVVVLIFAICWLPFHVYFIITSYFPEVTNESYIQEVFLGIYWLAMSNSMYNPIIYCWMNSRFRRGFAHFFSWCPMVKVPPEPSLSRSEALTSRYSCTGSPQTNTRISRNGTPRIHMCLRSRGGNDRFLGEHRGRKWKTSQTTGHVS

[10] = target: honeybee tachykinin-related peptide receptor (FLAG-TRPR) expressed in Sf21 cells (Apis mellifera)
Chain of honeybee tachykinin-related peptide receptor (FLAG-TRPR) expressed in Sf21 cells (Apis mellifera) (A0ACM8RFV8 entry or part of it): as above

[11] = target: honeybee tachykinin-related peptide receptor (FLAG-TRPR) expressed in HEK293 cells (Apis mellifera); remark: listed apart in the source
[12] = HEK293, 2 hr pretreatment, then TRP2 (10 nM or 1 μM) for 10 min
[13] = Sf21, 2 hr pretreatment, then TRP2 (10 nM or 1 μM) for 10 min

COc1ccc2c(c1)c(C1=C(c3c[nH]c4ccccc34)C(=O)NC1=O)cn2CCCN(C)C [Go6983]
inhibition of TRP/TRPR-mediated ERK activation [1, 12]: significant inhibition | inhibition of TRP/TRPR-mediated ERK activation [2, 13]: significant inhibition

Cl.Cl.O=S(=O)(NCCNC/C=C/c1ccc(Br)cc1)c1cccc2cnccc12 [H89]
cAMP accumulation ([3]; Suppl.3B, with TRP2, replicate 1): 18.636 | cAMP accumulation ([3]; Suppl.3B, with TRP2, replicate 2): 15.003 | cAMP accumulation ([3]; Suppl.3B, with TRP2, replicate 3): 13.325 | cAMP accumulation ([3]; Suppl.3B, with ddH2O (no TRP2), replicate 1): 3.551 | cAMP accumulation ([3]; Suppl.3B, with ddH2O (no TRP2), replicate 2): 2.309 | cAMP accumulation ([3]; Suppl.3B, with ddH2O (no TRP2), replicate 3): 2.639 | inhibition of TRP/TRPR-mediated ERK activation [1, 12]: significant inhibition | inhibition of TRP/TRPR-mediated ERK activation [2, 13]: significant inhibition

N#CC(=C(/N)Sc1ccccc1N)/C(C#N)=C(/N)Sc1ccccc1N [U0126]
inhibition of TRP/TRPR-mediated ERK activation [1, 12]: significant inhibition | inhibition of TRP/TRPR-mediated ERK activation [2, 13]: significant inhibition

APMGFQGMRa [TRP3]
competitive binding (residual TAMRA-TRP binding) ([4]; Log (M) -4, replicate 1): 5.1560 | competitive binding (residual TAMRA-TRP binding) ([4]; Log (M) -4, replicate 2): 4.9306 | competitive binding (residual TAMRA-TRP binding) ([4]; Log (M) -4, replicate 3): 5.6578 | competitive binding (residual TAMRA-TRP binding) ([4]; Log (M) -5, replicate 1): 9.5134 | competitive binding (residual TAMRA-TRP binding) ([4]; Log (M) -5, replicate 2): 5.2301 | competitive binding (residual TAMRA-TRP binding) ([4]; Log (M) -5, replicate 3): 6.7532 | competitive binding (residual TAMRA-TRP binding) ([4]; Log (M) -6, replicate 1): 19.3191 | competitive binding (residual TAMRA-TRP binding) ([4]; Log (M) -6, replicate 2): 12.3643 | competitive binding (residual TAMRA-TRP binding) ([4]; Log (M) -6, replicate 3): 13.3614 | competitive binding (residual TAMRA-TRP binding) ([4]; Log (M) -7, replicate 1): 23.7138 | competitive binding (residual TAMRA-TRP binding) ([4]; Log (M) -7, replicate 2): 20.6042 | competitive binding (residual TAMRA-TRP binding) ([4]; Log (M) -7, replicate 3): 26.4738 | competitive binding (residual TAMRA-TRP binding) ([4]; Log (M) -8, replicate 1): 49.0125 | competitive binding (residual TAMRA-TRP binding) ([4]; Log (M) -8, replicate 2): 48.4899 | competitive binding (residual TAMRA-TRP binding) ([4]; Log (M) -8, replicate 3): 40.9813 | competitive binding (residual TAMRA-TRP binding) ([4]; Log (M) -9, replicate 1): 72.5758 | competitive binding (residual TAMRA-TRP binding) ([4]; Log (M) -9, replicate 2): 73.4731 | competitive binding (residual TAMRA-TRP binding) ([4]; Log (M) -9, replicate 3): 66.5477 | competitive binding (residual TAMRA-TRP binding) ([4]; Log (M) -10, replicate 1): 84.1720 | competitive binding (residual TAMRA-TRP binding) ([4]; Log (M) -10, replicate 2): 90.8395 | competitive binding (residual TAMRA-TRP binding) ([4]; Log (M) -10, replicate 3): 88.1290 | competitive binding (residual TAMRA-TRP binding) ([4]; Log (M) -11, replicate 1): 92.0860 | competitive binding (residual TAMRA-TRP binding) ([4]; Log (M) -11, replicate 2): 97.3869 | competitive binding (residual TAMRA-TRP binding) ([4]; Log (M) -11, replicate 3): 95.5950 | competitive binding (residual TAMRA-TRP binding) ([4]; Log (M) -12, replicate 1): 93.1313 | competitive binding (residual TAMRA-TRP binding) ([4]; Log (M) -12, replicate 2): 100.0000 | competitive binding (residual TAMRA-TRP binding) ([4]; Log (M) -12, replicate 3): 92.9969 | competitive binding ([5]; Log (M) -4, replicate 1): 26.3879 | competitive binding ([5]; Log (M) -4, replicate 2): 30.2236 | competitive binding ([5]; Log (M) -4, replicate 3): 35.2235 | competitive binding ([5]; Log (M) -5, replicate 1): 39.1647 | competitive binding ([5]; Log (M) -5, replicate 2): 34.4531 | competitive binding ([5]; Log (M) -5, replicate 3): 41.6285 | competitive binding ([5]; Log (M) -6, replicate 1): 40.2510 | competitive binding ([5]; Log (M) -6, replicate 2): 48.0008 | competitive binding ([5]; Log (M) -6, replicate 3): 38.3975 | competitive binding ([5]; Log (M) -7, replicate 1): 53.7851 | competitive binding ([5]; Log (M) -7, replicate 2): 58.0646 | competitive binding ([5]; Log (M) -7, replicate 3): 56.8212 | competitive binding ([5]; Log (M) -8, replicate 1): 73.9138 | competitive binding ([5]; Log (M) -8, replicate 2): 70.3389 | competitive binding ([5]; Log (M) -8, replicate 3): 76.0795 | competitive binding ([5]; Log (M) -9, replicate 1): 79.8334 | competitive binding ([5]; Log (M) -9, replicate 2): 84.1204 | competitive binding ([5]; Log (M) -9, replicate 3): 84.2025 | competitive binding ([5]; Log (M) -10, replicate 1): 93.5892 | competitive binding ([5]; Log (M) -10, replicate 2): 92.3234 | competitive binding ([5]; Log (M) -10, replicate 3): 96.9419 | competitive binding ([5]; Log (M) -11, replicate 1): 93.4444 | competitive binding ([5]; Log (M) -11, replicate 2): 100.0000 | competitive binding ([5]; Log (M) -11, replicate 3): 96.2965 | competitive binding ([5]; Log (M) -12, replicate 1): 95.2946 | competitive binding ([5]; Log (M) -12, replicate 2): 98.1256 | competitive binding ([5]; Log (M) -12, replicate 3): 92.1545 | increase of cAMP levels [6]: more than 10 fold | intracellular Ca2+ levels [7]: rose sharply

cholera toxin [CTX]
cAMP accumulation [3]: 18.981 and 16.723 and 16.035 and 22.197 and 20.493 and 23.072

corazonin [CRZ, reference compound]
cAMP accumulation [6]: did not induce any detectable cAMP accumulation | cAMP accumulation [8]: did not induce any detectable cAMP accumulation

pertussis toxin [PTX]
inhibition of TRP/TRPR-mediated ERK activation [1]: had no effect | inhibition of TRP/TRPR-mediated ERK activation [2]: had no effect

pigment-dispersing hormone [PDH, reference compound]
cAMP accumulation [6]: did not induce any detectable cAMP accumulation | cAMP accumulation [8]: did not induce any detectable cAMP accumulation

short neuropeptide F [SNF, reference compound]
cAMP accumulation [6]: did not induce any detectable cAMP accumulation | cAMP accumulation [8]: did not induce any detectable cAMP accumulation

ALMGFQGVR (ends and bridges not checked) [tachykinin-related peptide 2 (TRP2), unlabeled synthetic peptide]
EC50 of ERK1/2 phosphorylation (Western blot) in HEK293 cells expressing TRPR, TRP2 from 0.1 pM to 1 μM for 10 min [9]: 68 nM | EC50 of ERK1/2 phosphorylation (Western blot) in Sf21 cells expressing TRPR, TRP2 from 0.1 pM to 1 μM for 10 min [10]: 1.68 nM | luciferase activity (pCRE-Luc reporter of cAMP) of HEK293 cells co-transfected with pFLAG-TRPR, 1 μM TRP2, against vehicle vector [11]: > 10 fold

APMGFQGMR-NH2 [tachykinin-related peptide 3 (TRP3), unlabeled synthetic peptide]
luciferase activity (pCRE-Luc reporter of cAMP) of HEK293 cells co-transfected with pFLAG-TRPR, 1 μM TRP3, against vehicle vector [11]: > 10 fold
